From the CheMixHub viscosity set

Assay: xn = mol fraction of the nth substance listed

CN(C)C=O + CC(C)O
viscosity [mPa·s], 101 kPa
Conditions | 298.15 K | 303.15 K | 308.15 K | 313.15 K | 318.15 K | 323.15 K
x1 = 0.0879 | 1.65 | 1.44 | 1.3 | 1.14 | – | –
x1 = 0.0995 | – | 1.385 | 1.237 | 1.096 | 0.9913 | 0.88
x1 = 0.1606 | 1.46 | 1.28 | 1.16 | 1.03 | – | –
x1 = 0.1992 | – | 1.166 | 1.057 | 0.9438 | 0.8597 | 0.778
x1 = 0.2389 | 1.34 | 1.18 | 1.08 | 0.95 | – | –
x1 = 0.3011 | – | 1.034 | 0.9443 | 0.8524 | 0.7903 | 0.7214
x1 = 0.3433 | 1.24 | 1.1 | 1.01 | 0.9 | – | –
x1 = 0.4009 | – | 0.9507 | 0.8752 | 0.8075 | 0.7462 | 0.6851
x1 = 0.44 | 1.16 | 1.05 | 0.96 | 0.87 | – | –
x1 = 0.4512 | 1.297 | – | – | – | – | –
x1 = 0.4737 | – | 0.9177 | 0.8467 | 0.7863 | 0.7252 | 0.6742
x1 = 0.5597 | 1.07 | 0.98 | 0.9 | 0.82 | – | –
x1 = 0.5987 | – | 0.8585 | 0.7964 | 0.7362 | 0.6938 | 0.6453
x1 = 0.6504 | 1.01 | 0.94 | 0.86 | 0.8 | – | –
x1 = 0.7011 | – | 0.8282 | 0.771 | 0.7187 | 0.6776 | 0.6312
x1 = 0.735 | 0.96 | 0.89 | 0.83 | 0.76 | – | –
x1 = 0.7991 | – | 0.796 | 0.7476 | 0.6985 | 0.6578 | 0.6196
x1 = 0.8522 | 0.89 | 0.83 | 0.78 | 0.72 | – | –
x1 = 0.8995 | – | 0.7844 | 0.7374 | 0.6874 | 0.6507 | 0.614
x1 = 0.9422 | 0.84 | 0.79 | 0.74 | 0.69 | – | –

O=[N+]([O-])c1ccccc1 + COc1ccccc1
Conditions | viscosity [mPa·s]
293.15 K, 101.33 kPa, x2 = 0.0982 | 1.864
293.15 K, 101.33 kPa, x2 = 0.1946 | 1.72
293.15 K, 101.33 kPa, x2 = 0.2868 | 1.597
293.15 K, 101.33 kPa, x2 = 0.3929 | 1.478
293.15 K, 101.33 kPa, x2 = 0.5767 | 1.407
293.15 K, 101.33 kPa, x2 = 0.6086 | 1.289
293.15 K, 101.33 kPa, x2 = 0.7073 | 1.23
293.15 K, 101.33 kPa, x2 = 0.8086 | 1.167
293.15 K, 101.33 kPa, x2 = 0.9081 | 1.117
298.15 K, 101 kPa, x2 = 0.1 | 1.556
298.15 K, 101 kPa, x2 = 0.2022 | 1.561
298.15 K, 101 kPa, x2 = 0.3039 | 1.454
298.15 K, 101 kPa, x2 = 0.3968 | 1.368
298.15 K, 101 kPa, x2 = 0.5018 | 1.281
298.15 K, 101 kPa, x2 = 0.6021 | 1.204
298.15 K, 101 kPa, x2 = 0.7032 | 1.146
298.15 K, 101 kPa, x2 = 0.8267 | 1.068
298.15 K, 101 kPa, x2 = 0.9043 | 1.045
298.15 K, 101.33 kPa, x2 = 0.0982 | 1.703
298.15 K, 101.33 kPa, x2 = 0.1946 | 1.613
298.15 K, 101.33 kPa, x2 = 0.2868 | 1.468
298.15 K, 101.33 kPa, x2 = 0.3929 | 1.371
298.15 K, 101.33 kPa, x2 = 0.5767 | 1.294
298.15 K, 101.33 kPa, x2 = 0.6086 | 1.201
298.15 K, 101.33 kPa, x2 = 0.7073 | 1.153
298.15 K, 101.33 kPa, x2 = 0.8086 | 1.074
298.15 K, 101.33 kPa, x2 = 0.9081 | 1.048
303.15 K, 101 kPa, x2 = 0.0972 | 1.555
303.15 K, 101 kPa, x2 = 0.1 | 1.43
303.15 K, 101 kPa, x2 = 0.1829 | 1.437
303.15 K, 101 kPa, x2 = 0.2022 | 1.443
303.15 K, 101 kPa, x2 = 0.2642 | 1.341
303.15 K, 101 kPa, x2 = 0.3039 | 1.339
303.15 K, 101 kPa, x2 = 0.3916 | 1.224
303.15 K, 101 kPa, x2 = 0.3968 | 1.263
303.15 K, 101 kPa, x2 = 0.4829 | 1.147
303.15 K, 101 kPa, x2 = 0.5018 | 1.186
303.15 K, 101 kPa, x2 = 0.583 | 1.08
303.15 K, 101 kPa, x2 = 0.6021 | 1.115
303.15 K, 101 kPa, x2 = 0.6854 | 1.022
303.15 K, 101 kPa, x2 = 0.7032 | 1.064
303.15 K, 101 kPa, x2 = 0.7963 | 0.981
303.15 K, 101 kPa, x2 = 0.8267 | 0.9924
303.15 K, 101 kPa, x2 = 0.8977 | 0.96
303.15 K, 101 kPa, x2 = 0.9043 | 0.9678
308.15 K, 101 kPa, x2 = 0.1 | 1.317
308.15 K, 101 kPa, x2 = 0.2022 | 1.326
308.15 K, 101 kPa, x2 = 0.3039 | 1.236
308.15 K, 101 kPa, x2 = 0.3968 | 1.165
308.15 K, 101 kPa, x2 = 0.5018 | 1.096
308.15 K, 101 kPa, x2 = 0.6021 | 1.031
308.15 K, 101 kPa, x2 = 0.7032 | 0.9838
308.15 K, 101 kPa, x2 = 0.8267 | 0.92
308.15 K, 101 kPa, x2 = 0.9043 | 0.8978
313.15 K, 101 kPa, x2 = 0.1 | 1.217
313.15 K, 101 kPa, x2 = 0.2022 | 1.224
313.15 K, 101 kPa, x2 = 0.3039 | 1.142
313.15 K, 101 kPa, x2 = 0.3968 | 1.078
313.15 K, 101 kPa, x2 = 0.5018 | 1.013
313.15 K, 101 kPa, x2 = 0.6021 | 0.9572
313.15 K, 101 kPa, x2 = 0.7032 | 0.9119
313.15 K, 101 kPa, x2 = 0.8267 | 0.8533
313.15 K, 101 kPa, x2 = 0.9043 | 0.8343

CCCCCCCCCCCCCC + Cc1ccccc1
viscosity [mPa·s], 101 kPa
Conditions | x1 = 0.1106 | x1 = 0.1996 | x1 = 0.2947 | x1 = 0.3965 | x1 = 0.5013 | x1 = 0.5988 | x1 = 0.7002 | x1 = 0.7982 | x1 = 0.8995
298.15 K | 0.697 | 0.803 | 0.909 | 1.038 | 1.168 | 1.318 | 1.468 | 1.664 | 1.86
303.15 K | 0.654 | 0.748 | 0.842 | 0.962 | 1.081 | 1.211 | 1.341 | 1.513 | 1.685
308.15 K | 0.613 | 0.699 | 0.786 | 0.894 | 1.002 | 1.115 | 1.228 | 1.384 | 1.54

ClC(Cl)=C(Cl)Cl + COc1ccccc1
303.15 K, 101.3 kPa
Conditions | viscosity [mPa·s]
x2 = 0.0193 | 0.793
x2 = 0.039 | 0.79
x2 = 0.0561 | 0.792
x2 = 0.1158 | 0.781
x2 = 0.189 | 0.776
x2 = 0.2303 | 0.778
x2 = 0.2742 | 0.783
x2 = 0.3317 | 0.787
x2 = 0.3643 | 0.79
x2 = 0.4286 | 0.801
x2 = 0.4726 | 0.812
x2 = 0.6096 | 0.831
x2 = 0.6829 | 0.848
x2 = 0.7292 | 0.856
x2 = 0.7745 | 0.862
x2 = 0.8665 | 0.878
x2 = 0.8991 | 0.885
x2 = 0.9485 | 0.899

O=[N+]([O-])c1ccccc1 + CCCCCO
293.15 K, 101.33 kPa
Conditions | viscosity [mPa·s]
x2 = 0.0258 | 1.964
x2 = 0.0556 | 1.924
x2 = 0.104 | 1.867
x2 = 0.18 | 1.856
x2 = 0.204 | 1.86
x2 = 0.2635 | 1.899
x2 = 0.2976 | 1.918
x2 = 0.3319 | 1.938
x2 = 0.3827 | 2.003
x2 = 0.4677 | 2.104
x2 = 0.6694 | 2.475
x2 = 0.8217 | 2.982
